In patent publication US11149021B2, “N-(azaaryl)cyclolactam-1-carboxamide derivative, preparation method therefor, and use thereof” (Abbisko Therapeutics Co., Ltd., priority 2017, dated 2021) one finds IC50 data, which are given here for 4 compounds.

Like-named read-outs stand apart in the source and are kept apart here. Some results are limits rather than exact numbers.

In assay [1] the target is T1, CSF-1R (Homo sapiens, UniProt P07333).
T1 construct: 3.95 nM of CSF-1R, 500 μM of ATP
Briefly: CSF-1R in vitro biochemical kinase study (ADP-Glo assay). In general terms: In ADP-Glo the light output rises with the ADP produced.

Assay [2] has as its target KIT (Homo sapiens, UniProt P10721). Nature of the assay: KIT in vitro biochemical kinase study (Caliper EZ Reader). The note with it: * = average of multiple tests; read-out: Enzymatic experiment KIT IC50. As for the experimental part:
(§1) 8. the compound IC50 value was measured by using a plate reader (Tecan, M1000) and a four-parameter curve was generated in Graphpad Prism. The enzymatic activities of compounds in the specific embodiments are shown in Table 1. • B. KIT/PDGFRA in vitro biochemical kinase study • 1. Preparation of 1-fold kinase buffer and stop solution • 1.1. 1-fold kinase buffer: 50 mM HEPES, pH 7.5, 0.0015% Brij-35. • 1.2 stop solution: 100 mM HEPES, pH 7.5, 0.015% Brij-35, 0.2% Coating Reagent #3, 50 mM EDTA • 2 Preparation of compound solution • 2.1 Dilution of compound solution • 1) The final concentration of the compound solution was 40 μM, and the concentration of the prepared stock solution was 50 times of the final concentration, i.e., 2 mM. • 2) 80 μL of 100% DMSO was added to the second well of a 96-well plate, and then 20 μL of 10 mM compound solution was added to obtain 2 mM compound solution. 60 μL of 100% DMSO was added to other wells. 20 μL solution was taken from the second well and added to the third well, which was diluted by 4 times. This serial 4-time dilution was conducted in sequence for the total of 10 concentration. • 2.2 5-fold compound solution transferred to a reaction plate • 1) 10 μL solution was taken from each well of the above 96-well plate and added to another 96-well plate, and 90 µl of kinase buffer was added in each well of new plate. • 2) 5 μL solution was taken from the above 96-well plate and added to a 384-well reaction plate. • 2.3 Kinase reaction • 1) KIT/PDGFRA kinase was added to the 1-fold kinase buffer solution to obtain a 2.5-fold kinase solution. • 2) FAM-labeled polypeptide and ATP were added to the 1-fold kinase buffer solution to obtain a 2.5-fold substrate solution. • 3) 10 μL of 2.5-fold kinase solution was added to the 384-well reaction plate, which already contained 5 μL of 5-fold compound in 10% DMSO. […] Percent inhibition=(max-conversion)/(max-min)×100
(§2) 3) The IC50 value was fit with XLFit excel add-in version 5.4.0,8: Fitting formula: Y=Bottom+(Top-Bottom)/(1+(IC50/X)^HillSlope).
(§3) CSF-1R cell proliferation study

Assay [3] concerns the target PDGFRA (Homo sapiens, UniProt P16234). Nature of the assay: PDGFRA in vitro biochemical kinase study (Caliper EZ Reader). The note with it: * = average of multiple tests; read-out: Enzymatic experiment PDGFRA IC50. As for the experimental part: as §1, §2, §3
In assay [4] the test system is M-NFS-60 mouse myeloid leukemia lymphocytes. Briefly: CSF-1R cell proliferation study (Cell Titer Glo).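 Further: M-CSF-driven proliferation, viable cells quantified as ATP by luminescence, compounds tested as 3-fold serial dilutions, values from four-parameter curve fits.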 The assay is classed as cell-based. The note with it: Lymphocyte, 72 h. On the technique in general: Cellular ATP, detected with luciferase, serves as a proxy for viable cell number.
Description: Functional effects of compounds on cell proliferation were evaluated by using Cell Titer Glo (CTG) study in the present invention. […] Since ATP is an index for viable cell metabolism, CTG (Promega, #G7573) reagent is a homogeneous detection method for detecting the number of viable cells in the culture by quantifying ATP. Therefore, compound-mediated inhibition for cell proliferation/survival was evaluated by quantifying ATP content in cells, and the specific experimental process was as follows:
3. 10 μL of culture medium containing M-CSF with 10-fold of the final concentration was then added to each well;
4. dosage effect was evaluated by testing the 3-fold serial dilutions of the compound;
5. after the cells were incubated for 3 days at 37° C. and 5% CO2, the inhibition on cell survival was quantified after 50 μL of CTG was added and the luminescence assay was performed;
6. the compound concentration leading to half maximal inhibitory (IC50) and the compound concentration leading to absolute half maximal inhibitory (Absolute IC50) was measured by a plate reader (M1000, Tecan) and a four-parameter curve fit in Graphpad Prism 7.
For assay [5], the system named is M-07e human cytomegalic leukemia cells. Nature of the assay: CSF-1R-related cell proliferation experiment, KIT (Cell Titer Glo). Format: cell-based. The note with it: 72 h, read-out: Cytological experiment KIT IC50 (nM).
Description: (§4) Functional effects of compounds on the proliferation of several cell lines were evaluated by Cell Titer Glo (CTG) studies in the present invention, and effects of the compounds on the proliferation of different cells were evaluated to determine the selectivity of the compounds. […] No. CBP60115) were cultured in an incubator under conditions of RPM11640 (Gibco, cat. […] No. CBP60522) were cultured in an incubator under conditions of IMDM (Invitrogen, cat. […] Since ATP is an index for viable cell metabolism, CTG (Promega, #G7573) reagent is a homogeneous detection method for detecting the number of viable cells in the culture by quantifying ATP. Therefore, compound-mediated inhibition for cell proliferation/survival was evaluated by quantifying ATP content in cells, and the specific experimental process was as follows.
Assay [6] relates to MV-4-11 human acute monocytic leukemia cells. Briefly: CSF-1R-related cell proliferation experiment, FLT3 (Cell Titer Glo). The assay is classed as cell-based. The note with it: MV4-11, 72 h, read-out: Cytological experiment FLT3 IC50 (nM).
Description: as §4
The subject of assay [7] is NCI-H1703 human non-small cell lung squamous carcinoma cells. Nature of the assay: CSF-1R-related cell proliferation experiment, PDGFRA (Cell Titer Glo). To be noted: NCI-H1703, 72 h, read-out: Cytological experiment PDGERA IC50 (nM). The assay is classed as cell-based.
Description: as §4
Where [8] appears, read: read-out: Cytological experiment CS1-1R Absolute IC50 (nM).
Where [9] appears, read: read-out: Cytological experiment CSF-1R IC50 (nM).

T1 sequence (P07333 20-972): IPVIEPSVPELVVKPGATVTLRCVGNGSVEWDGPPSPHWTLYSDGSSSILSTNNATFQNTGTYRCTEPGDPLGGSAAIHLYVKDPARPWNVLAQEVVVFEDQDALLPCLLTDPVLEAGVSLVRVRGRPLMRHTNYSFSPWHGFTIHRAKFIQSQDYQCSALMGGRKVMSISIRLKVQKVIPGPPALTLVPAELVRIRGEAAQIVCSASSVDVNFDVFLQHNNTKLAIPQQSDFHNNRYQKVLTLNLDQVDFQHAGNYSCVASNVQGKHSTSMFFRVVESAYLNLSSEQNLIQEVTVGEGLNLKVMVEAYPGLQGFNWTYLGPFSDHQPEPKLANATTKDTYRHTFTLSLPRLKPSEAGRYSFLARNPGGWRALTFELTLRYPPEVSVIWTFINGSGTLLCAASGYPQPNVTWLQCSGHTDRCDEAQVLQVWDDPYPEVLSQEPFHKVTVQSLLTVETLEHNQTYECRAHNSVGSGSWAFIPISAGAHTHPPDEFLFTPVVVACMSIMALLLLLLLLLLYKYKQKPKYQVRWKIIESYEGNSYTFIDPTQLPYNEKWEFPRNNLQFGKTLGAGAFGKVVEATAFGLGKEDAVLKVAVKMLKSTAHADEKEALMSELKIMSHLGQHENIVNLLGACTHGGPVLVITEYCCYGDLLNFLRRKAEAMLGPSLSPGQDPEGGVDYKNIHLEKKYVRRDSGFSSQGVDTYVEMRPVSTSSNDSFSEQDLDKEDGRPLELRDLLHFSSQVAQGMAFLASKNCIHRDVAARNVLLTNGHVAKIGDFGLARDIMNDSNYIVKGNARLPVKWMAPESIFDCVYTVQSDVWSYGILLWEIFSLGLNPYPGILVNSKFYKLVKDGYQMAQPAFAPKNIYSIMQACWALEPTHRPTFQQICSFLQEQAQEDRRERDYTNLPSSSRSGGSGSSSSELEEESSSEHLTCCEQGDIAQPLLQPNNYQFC
Chain of PDGFRA (P16234 24-1089): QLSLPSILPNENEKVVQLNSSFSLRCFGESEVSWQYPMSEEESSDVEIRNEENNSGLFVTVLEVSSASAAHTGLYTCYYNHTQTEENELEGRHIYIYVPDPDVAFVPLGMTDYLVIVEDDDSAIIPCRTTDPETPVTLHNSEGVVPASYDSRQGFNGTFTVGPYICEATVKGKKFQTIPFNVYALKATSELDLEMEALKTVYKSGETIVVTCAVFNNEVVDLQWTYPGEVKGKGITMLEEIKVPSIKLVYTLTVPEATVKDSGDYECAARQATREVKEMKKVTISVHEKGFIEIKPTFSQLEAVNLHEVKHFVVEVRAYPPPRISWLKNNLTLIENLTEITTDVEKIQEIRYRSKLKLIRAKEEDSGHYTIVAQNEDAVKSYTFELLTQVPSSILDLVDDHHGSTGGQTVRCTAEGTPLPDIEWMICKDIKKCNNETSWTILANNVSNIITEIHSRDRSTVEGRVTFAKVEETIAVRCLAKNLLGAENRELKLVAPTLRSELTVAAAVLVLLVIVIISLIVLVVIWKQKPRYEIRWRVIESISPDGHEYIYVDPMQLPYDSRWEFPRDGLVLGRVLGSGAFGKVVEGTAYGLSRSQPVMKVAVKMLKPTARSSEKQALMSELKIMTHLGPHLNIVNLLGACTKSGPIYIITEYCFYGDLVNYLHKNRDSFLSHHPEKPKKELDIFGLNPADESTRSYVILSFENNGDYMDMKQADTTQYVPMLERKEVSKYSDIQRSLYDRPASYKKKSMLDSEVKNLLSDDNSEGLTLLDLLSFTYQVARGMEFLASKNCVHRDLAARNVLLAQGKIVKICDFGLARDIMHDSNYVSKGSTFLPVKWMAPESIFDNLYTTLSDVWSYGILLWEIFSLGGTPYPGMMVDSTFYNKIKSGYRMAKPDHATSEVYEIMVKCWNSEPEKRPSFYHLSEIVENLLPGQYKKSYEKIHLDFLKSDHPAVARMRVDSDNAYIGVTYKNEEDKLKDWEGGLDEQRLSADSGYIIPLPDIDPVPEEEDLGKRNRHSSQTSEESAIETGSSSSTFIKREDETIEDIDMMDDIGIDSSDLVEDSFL
Chain of KIT (P10721 26-976): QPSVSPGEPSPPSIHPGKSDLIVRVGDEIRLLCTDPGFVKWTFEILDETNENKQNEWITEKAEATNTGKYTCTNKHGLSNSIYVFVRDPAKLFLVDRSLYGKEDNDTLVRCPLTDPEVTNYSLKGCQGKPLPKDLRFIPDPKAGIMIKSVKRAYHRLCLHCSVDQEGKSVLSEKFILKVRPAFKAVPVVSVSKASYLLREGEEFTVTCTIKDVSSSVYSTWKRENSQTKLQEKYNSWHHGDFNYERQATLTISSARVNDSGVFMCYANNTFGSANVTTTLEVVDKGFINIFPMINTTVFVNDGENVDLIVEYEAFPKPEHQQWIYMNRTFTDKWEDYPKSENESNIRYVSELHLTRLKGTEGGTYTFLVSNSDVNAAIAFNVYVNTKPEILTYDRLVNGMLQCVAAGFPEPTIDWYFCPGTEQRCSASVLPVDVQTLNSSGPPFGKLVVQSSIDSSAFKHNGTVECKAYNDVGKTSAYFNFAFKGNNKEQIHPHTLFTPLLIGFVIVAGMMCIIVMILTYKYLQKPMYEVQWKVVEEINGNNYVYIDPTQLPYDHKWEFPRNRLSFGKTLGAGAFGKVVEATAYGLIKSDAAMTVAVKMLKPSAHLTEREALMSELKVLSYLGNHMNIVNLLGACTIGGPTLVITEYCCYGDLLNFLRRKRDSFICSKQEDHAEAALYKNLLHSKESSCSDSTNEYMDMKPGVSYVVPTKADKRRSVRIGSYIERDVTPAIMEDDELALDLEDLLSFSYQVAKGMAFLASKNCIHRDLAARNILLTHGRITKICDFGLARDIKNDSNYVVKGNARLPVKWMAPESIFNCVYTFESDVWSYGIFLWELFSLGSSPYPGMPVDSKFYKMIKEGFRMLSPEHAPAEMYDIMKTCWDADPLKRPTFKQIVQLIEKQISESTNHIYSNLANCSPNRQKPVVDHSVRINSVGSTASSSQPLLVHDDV

For the compound `CCn1cc(-c2cc(Oc3ccc(NC(=O)N4CCC(C)(C)C4=O)nc3C)ccn2)cn1` [Example 6, N-(5-((2-(1-ethyl-1H-pyrazol-4-yl)pyridin-4-yl)oxy)-6-methylpyridin-2-yl)-3,3-dimethyl-2-oxopyrrolidine-1-carboxamide], the IC50 in assay [1] worked out at 25.8 nM; in assay [2], 167 nM; in assay [3], 2450 nM; in assay [4] (setting [8]) it was 36.6 nM; in assay [4] (setting [9]) it was 42.9 nM; in assay [5], 1670 nM. The IC50 amounted to 9000 nM in assay [6] and 6000 nM in assay [7].

With `Cc1nc(NC(=O)N2CCOC(C)(C)C2=O)ccc1Oc1ccnc(-c2cnn(C)c2)c1` [Example 29, 2,2-dimethyl-N-(6-methyl-5-((2-(1-methyl-1H-pyrazol-4-yl)pyridin-4-yl)oxy)pyridin-2-yl)-3-oxomorpholine-4-carboxamide], the IC50 in assay [1] was 52.2 nM; in assay [2], 92.5 nM; in assay [3], 931 nM; in assay [4] (setting [8]), 75.1 nM; in assay [4] (setting [9]) it was 76.3 nM; in assay [5] it was > 2000 nM. The values for the IC50 in assay [6] and in assay [7] were > 18000 nM and > 6000 nM, respectively.

As to `Cn1cc(-c2cc(Oc3ccc(NC(=O)N4CCC(C)(C)C4=O)nc3)ccn2)cn1` [Example 2, 3,3-dimethyl-N-(5-((2-(1-methyl-1H-pyrazol-4-yl)pyridin-4-yl)oxy)pyridin-2-yl)-2-oxopyrrolidine-1-carboxamide], the IC50 in assay [1] stood at 14.4 nM; in assay [2] it was 59.8 nM; in assay [3] it was 435 nM; in assay [4] (setting [8]), 23.1 nM; in assay [4] (setting [9]), 26.3 nM; in assay [5] it was 158 nM. Also, the values for the 50% inhibitory concentration (IC50) in assay [6] and in assay [7] were 6000 nM and 18000 nM, respectively.

On to `Cc1nc(NC(=O)N2CCCC(C)(C)C2=O)ccc1Oc1ccnc(-c2cnn(C)c2)c1` [Example 28, 3,3-dimethyl-N-(6-methyl-5-((2-(1-methyl-1H-pyrazol-4-yl)pyridin-4-yl)oxy)pyridin-2-yl)-2-oxopiperidine-1-carboxamide], for which the IC50 in assay [1] is 24.2 nM; in assay [2], 8.48 nM; in assay [3], 107 nM; in assay [4] (setting [8]), 31.9 nM; in assay [4] (setting [9]) it was 35.7 nM; in assay [5], 940 nM. Besides, the concentration for half-maximal inhibition (IC50) amounted to 10000 nM in assay [6] and 9530 nM in assay [7].

By IC50 is commonly meant the midpoint of a concentration-inhibition curve.
